Test [1] has as its target T1, rat PrRP receptor (Rattus norvegicus, UniProt Q64121).
T1 construct: host or cells: RC-4B/C rat pituitary cell line
T1 sequence (Q64121 1-370): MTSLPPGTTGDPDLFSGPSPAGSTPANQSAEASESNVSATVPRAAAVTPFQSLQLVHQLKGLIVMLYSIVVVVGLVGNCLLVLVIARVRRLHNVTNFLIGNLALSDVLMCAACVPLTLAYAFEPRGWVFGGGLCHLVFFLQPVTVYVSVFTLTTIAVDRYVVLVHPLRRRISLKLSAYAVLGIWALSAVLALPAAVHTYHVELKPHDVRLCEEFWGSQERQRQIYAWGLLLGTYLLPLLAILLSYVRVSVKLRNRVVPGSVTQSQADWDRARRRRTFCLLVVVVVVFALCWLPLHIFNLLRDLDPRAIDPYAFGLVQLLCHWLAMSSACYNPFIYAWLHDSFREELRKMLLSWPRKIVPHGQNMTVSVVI
In words: Competitive binding in RC-4B/C rat pituitary cells (125I-rat PrRP31). The settings on record: for Ki: RC-4B/C cells, displacement of 125I-rat PrRP31, read-out: Ki, RC-4B/C rat pituitary cells ^25I-rat PrRP31; for % of PrRP31, RC-4B/C rat pituitary cells: affinity relative to PrRP31. On the procedure:
(§1) Competitive binding experiments were performed according to Motulsky and Neubig (Motulsky, A., et al., “Analyzing radioligand binding data,” Curr Protoc Neurosci, Chapter 7, Unit 7.5, 2002). Binding experiments were conducted with rat pituitary cells, and with Chinese Hamster Ovary (CHO) cells as follows:
The rat pituitary cell line RC-4B/C (ATCC, Manassas, USA) was grown on 24-well plates which had their bottom coated with polyethyleneimine. The cells were grown to the optimal density of 300-450 thousand cells per well. The following agents were used for the experiment: binding buffer (20 mmol·l^−1 HEPES, Ph 7.4; 118 mmol·l^−1 NaCl, 4.7 mmol·l^−1 KCl, 5 mmol·l^−1 MgCl2, 5.5 mmol·l^−1 glucose, 1 mg/ml BSA, 0.1 BPTI), unlabeled analogs of PrRP (i.e. the analog being tested) at a final concentration between 10^−11 to 10^−4 mol·l^−1, and rat ^125I-PrRP31 (labeled with radioactive Iodine-125) at a final concentration of […] (Maixnerová et al., 2011).
(§2) Plates were incubated for 60 minutes at room temperature. After incubation, the cells were solubilized in 0.1 mol/l solution of NaOH, and the radioactivity bound to the cells was counted using a γ-counter. The experiments were performed in duplicate, and repeated at least three times.
(§3) Graph Pad Prism Software (San Diego, Calif., USA) was used for evaluating the competitive binding experiments. Nonlinear regression was performed using a onsite binding model.
(Loss of bound radioactivity is the signal in a displacement assay; it reports binding, not function.)

Test [2] addresses T2, human PrRP receptor GPR10 (Homo sapiens, UniProt P49683).
T2 construct: host or cells: CHO cells
T2 sequence (P49683 1-370): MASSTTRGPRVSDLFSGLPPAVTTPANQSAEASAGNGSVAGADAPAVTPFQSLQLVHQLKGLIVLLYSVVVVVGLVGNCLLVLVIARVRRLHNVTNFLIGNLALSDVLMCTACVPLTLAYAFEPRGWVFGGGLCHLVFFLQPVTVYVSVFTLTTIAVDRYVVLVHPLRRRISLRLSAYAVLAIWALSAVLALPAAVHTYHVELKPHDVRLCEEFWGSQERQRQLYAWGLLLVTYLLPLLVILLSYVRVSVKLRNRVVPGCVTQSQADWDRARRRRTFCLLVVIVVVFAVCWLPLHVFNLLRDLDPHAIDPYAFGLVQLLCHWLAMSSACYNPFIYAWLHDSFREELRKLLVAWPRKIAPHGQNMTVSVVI
The test can be described thus: Competitive binding in CHO cells transfected with human GPR10 (human 125I-PrRP31). The settings on record: for Ki: CHO cells, human 125I-PrRP31, read-out: Ki, GPR10 human receptor transfected in CHO cells; for % of PrRP31, GPR10 human receptor transfected in CHO cells: affinity relative to PrRP31. On the procedure:
as §1
CHO cells transfected with human PrRP receptor GPR10 (Perkin Elmer, USA) were grown on 24-well plates coated with polyethyleneimine. The cells were grown to the optimal density of 40-80 thousand cells per well. The following agents were used for the experiment: binding buffer (25 mmol·l^−1 Tris, pH 7.4; 118 mmol·l^−1 NaCl, 10 mmol·l^−1 MgCl2, 10 mmol·l^−1 CaCl2, 5.5 mmol·l^−1 glucose, 0.5 mg/ml BSA), unlabeled analogs of PrRP (i.e. the analog being tested) at a final concentration between 10^−11 to 10^−4 mol·l^−1, and radiolabeled human ^125I-PrRP31 at a final concentration of 5×10^−11 mol·l^−1.
as §2, §3

Square brackets hold non-standard residues; d marks the D form. Peptide text beside a SMILES is read from it. * marks the point of attachment. Phe(4-NO2) = N[C@@H](Cc1ccc([N+](=O)[O-])cc1)C(=O)O; Phe(3,4-Cl2) = N[C@@H](Cc1ccc(Cl)c(Cl)c1)C(=O)O; Phe(F5) = N[C@@H](Cc1c(F)c(F)c(F)c(F)c1F)C(=O)O; Myristoyl = CCCCCCCCCCCCCC(=O)*; Nle = CCCC[C@H](N)C(=O)O; Sar = CNCC(=O)O

Regarding `CCCC[C@H](NC(=O)[C@H](CO)NC(=O)[C@H](Cc1c[nH]cn1)NC(=O)[C@H](CCC(N)=O)NC(=O)[C@H](Cc1c[nH]cn1)NC(=O)[C@H](C)NC(=O)[C@H](CCCNC(=N)N)NC(=O)[C@@H](N)CO)C(=O)N[C@@H](CCC(=O)O)C(=O)N[C@H](C(=O)N[C@@H](CCCNC(=N)N)C(=O)N[C@H](C(=O)N1CCC[C@H]1C(=O)N[C@@H](CC(=O)O)C(=O)N[C@H](C(=O)N[C@@H](CC(N)=O)C(=O)N1CCC[C@H]1C(=O)N[C@@H](C)C(=O)N[C@@H](Cc1c[nH]c2ccccc12)C(=O)N[C@@H](Cc1ccc(O)cc1)C(=O)N[C@H](C(=O)NCC(=O)N[C@@H](CCCNC(=N)N)C(=O)NCC(=O)N[C@H](C(=O)N[C@@H](CCCNC(=N)N)C(=O)N1CCC[C@H]1C(=O)N[C@H](C(=O)NCC(=O)N[C@@H](CCCNC(=N)N)C(=O)N[C@@H](Cc1ccc(Cl)c(Cl)c1)C(N)=O)C(C)C)[C@@H](C)CC)[C@@H](C)O)[C@@H](C)CC)[C@@H](C)O)[C@@H](C)O` [Analog 13] (H-SRAHQHS[Nle]ETRTPDINPAWYTGRGIRPVGR[Phe(3,4-Cl2)]-NH2; N-terminus assumed), in test [1], the Ki was determined as 3.84 ± 0.93 nM and the “% of PrRP31, RC-4B/C rat pituitary cells” value was 128%. In test [2], the Ki stood at 2.27 ± 0.48 nM and the “% of PrRP31, GPR10 human receptor transfected in CHO cells” value (“% of PrRP31 … in CHO cells” below) was 171%.

As to `CCCC[C@H](NC(=O)[C@H](CO)NC(=O)[C@H](Cc1c[nH]cn1)NC(=O)[C@H](CCC(N)=O)NC(=O)[C@H](Cc1c[nH]cn1)NC(=O)[C@H](C)NC(=O)[C@H](CCCNC(=N)N)NC(=O)[C@@H](N)CO)C(=O)N[C@@H](CCC(=O)O)C(=O)N[C@H](C(=O)N[C@@H](CCCNC(=N)N)C(=O)N[C@H](C(=O)N1CCC[C@H]1C(=O)N[C@@H](CC(=O)O)C(=O)N[C@H](C(=O)N[C@@H](CC(N)=O)C(=O)N1CCC[C@H]1C(=O)N[C@@H](C)C(=O)N[C@@H](Cc1c[nH]c2ccccc12)C(=O)N[C@@H](Cc1ccc(O)cc1)C(=O)N[C@H](C(=O)NCC(=O)N[C@@H](CCCNC(=N)N)C(=O)NCC(=O)N[C@H](C(=O)N[C@@H](CCCNC(=N)N)C(=O)N1CCC[C@H]1C(=O)N[C@H](C(=O)NCC(=O)N[C@@H](CCCNC(=N)N)C(=O)N[C@@H](Cc1ccc([N+](=O)[O-])cc1)C(N)=O)C(C)C)[C@@H](C)CC)[C@@H](C)O)[C@@H](C)CC)[C@@H](C)O)[C@@H](C)O` [Analog 16] (H-SRAHQHS[Nle]ETRTPDINPAWYTGRGIRPVGR[Phe(4-NO2)]-NH2; N-terminus assumed), in test [1], the Ki is 19.9 ± 5.9 nM and the “% of PrRP31, RC-4B/C rat pituitary cells” value was 2.5%. Besides, in test [2], the Ki was 4.8 ± 0.88 nM and the “% of PrRP31 … in CHO cells” value is listed as 81%.

Turning to `CCCCCCCCCCCCCC(=O)N[C@@H](CO)C(=O)N[C@@H](CCCNC(=N)N)C(=O)N[C@@H](C)C(=O)N[C@@H](Cc1c[nH]cn1)C(=O)N[C@@H](CCC(N)=O)C(=O)N[C@@H](Cc1c[nH]cn1)C(=O)N[C@@H](CO)C(=O)N[C@@H](CCCC)C(=O)N[C@@H](CCC(=O)O)C(=O)N[C@H](C(=O)N[C@@H](CCCNC(=N)N)C(=O)N[C@H](C(=O)N1CCC[C@H]1C(=O)N[C@@H](CC(=O)O)C(=O)N[C@H](C(=O)N[C@@H](CC(N)=O)C(=O)N1CCC[C@H]1C(=O)N[C@@H](C)C(=O)N[C@@H](Cc1c[nH]c2ccccc12)C(=O)N[C@@H](Cc1ccc(O)cc1)C(=O)N[C@H](C(=O)NCC(=O)N[C@@H](CCCNC(=N)N)C(=O)NCC(=O)N[C@H](C(=O)N[C@@H](CCCNC(=N)N)C(=O)N1CCC[C@H]1C(=O)N[C@H](C(=O)NCC(=O)N[C@@H](CCCNC(=N)N)C(=O)N[C@@H](Cc1ccc([N+](=O)[O-])cc1)C(N)=O)C(C)C)[C@@H](C)CC)[C@@H](C)O)[C@@H](C)CC)[C@@H](C)O)[C@@H](C)O` [Analog 17] (Myristoyl-SRAHQHS[Nle]ETRTPDINPAWYTGRGIRPVGR[Phe(4-NO2)]-NH2), in test [1], the Ki was 1.97 ± 1.26 nM and the “% of PrRP31, RC-4B/C rat pituitary cells” value stood at 250%. In test [2], the Ki was found to be 1.59 ± 1.05 nM and the “% of PrRP31 … in CHO cells” value was determined as 245%.

In the case of `CCCC[C@H](NC(=O)[C@H](CO)NC(=O)[C@H](Cc1c[nH]cn1)NC(=O)[C@H](CCC(N)=O)NC(=O)[C@H](Cc1c[nH]cn1)NC(=O)[C@H](C)NC(=O)[C@H](CCCNC(=N)N)NC(=O)[C@@H](N)CO)C(=O)N[C@@H](CCC(=O)O)C(=O)N[C@H](C(=O)N[C@@H](CCCNC(=N)N)C(=O)N[C@H](C(=O)N1CCC[C@H]1C(=O)N[C@@H](CC(=O)O)C(=O)N[C@H](C(=O)N[C@@H](CC(N)=O)C(=O)N1CCC[C@H]1C(=O)N[C@@H](C)C(=O)N[C@@H](Cc1c[nH]c2ccccc12)C(=O)N[C@@H](Cc1ccc(O)cc1)C(=O)N[C@H](C(=O)NCC(=O)N[C@@H](CCCNC(=N)N)C(=O)NCC(=O)N[C@H](C(=O)N[C@@H](CCCNC(=N)N)C(=O)N1CCC[C@H]1C(=O)N[C@H](C(=O)NCC(=O)N[C@@H](CCCNC(=N)N)C(=O)N[C@@H](Cc1c(F)c(F)c(F)c(F)c1F)C(N)=O)C(C)C)[C@@H](C)CC)[C@@H](C)O)[C@@H](C)CC)[C@@H](C)O)[C@@H](C)O` [Analog 21] (H-SRAHQHS[Nle]ETRTPDINPAWYTGRGIRPVGR[Phe(F5)]-NH2), in test [1], the “% of PrRP31, RC-4B/C rat pituitary cells” value came to 51%. Further, in test [2], the “% of PrRP31 … in CHO cells” value came out at 45%.

Turning to `CCCC[C@H](NC(=O)[C@H](CO)NC(=O)[C@H](Cc1c[nH]cn1)NC(=O)[C@H](CCC(N)=O)NC(=O)[C@H](Cc1c[nH]cn1)NC(=O)[C@H](C)NC(=O)[C@H](CCCNC(=N)N)NC(=O)[C@@H](N)CO)C(=O)N[C@@H](CCC(=O)O)C(=O)N[C@H](C(=O)N[C@@H](CCCNC(=N)N)C(=O)N[C@H](C(=O)N1CCC[C@H]1C(=O)N[C@@H](CC(=O)O)C(=O)N[C@H](C(=O)N[C@@H](CC(N)=O)C(=O)N1CCC[C@H]1C(=O)N[C@@H](C)C(=O)N[C@@H](Cc1c[nH]c2ccccc12)C(=O)N[C@@H](Cc1ccc(O)cc1)C(=O)N[C@H](C(=O)NCC(=O)N[C@@H](CCCNC(=N)N)C(=O)NCC(=O)N[C@H](C(=O)N[C@@H](CCCNC(=N)N)C(=O)N1CCC[C@H]1C(=O)N[C@H](C(=O)NCC(=O)N[C@@H](CCCNC(=N)N)C(=O)N[C@@H](Cc1ccc(O)cc1)C(N)=O)C(C)C)[C@@H](C)CC)[C@@H](C)O)[C@@H](C)CC)[C@@H](C)O)[C@@H](C)O` [Analog 23] (H-SRAHQHS[Nle]ETRTPDINPAWYTGRGIRPVGRY-NH2), in test [1], the “% of PrRP31, RC-4B/C rat pituitary cells” value is 152%. The “% of PrRP31 … in CHO cells” value in test [2] is recorded as 193%.

For `CC[C@H](C)[C@H](NC(=O)CN(C)C(=O)[C@H](CCCNC(=N)N)NC(=O)CNC(=O)[C@@H](NC(=O)[C@H](Cc1ccc(O)cc1)NC(=O)[C@H](Cc1c[nH]c2ccccc12)NC(=O)[C@H](C)NC(=O)[C@@H]1CCCN1C(=O)[C@H](CC(N)=O)NC(=O)[C@@H](NC(=O)[C@H](CC(=O)O)NC(=O)[C@@H]1CCCN1C(=O)[C@@H](N)[C@@H](C)O)[C@@H](C)CC)[C@@H](C)O)C(=O)N[C@@H](CCCNC(=N)N)C(=O)N1CCC[C@H]1C(=O)N[C@H](C(=O)NCC(=O)N[C@@H](CCCNC(=N)N)C(=O)N[C@@H](Cc1ccccc1)C(N)=O)C(C)C` [Analog 27] (H-TPDINPAWYTGR[Sar]IRPVGRF-NH2), the “% of PrRP31, RC-4B/C rat pituitary cells” value in test [1] amounted to 62%. Also, the “% of PrRP31 … in CHO cells” value in test [2] was 86%.

The values are drawn from patent US10350271B2, “Lipidated peptides for lowering blood glucose” (USTAV ORGANICKE CHEMIE A BIOCHEMIE AKADEMIE VED CR, V.V.I., priority 2014, dated 2019).
